ChEMBL document CHEMBL1201862, “PubChem BioAssay data set” (2004)
The source made the active and inactive calls.

Legend:
Beta Lactamase = Beta Lactamase (Pseudomonas aeruginosa, UniProt Q932Y6); experiment: beta-lactamase reporter inhibitor potency, dose response, artefact control for TLR9-MyD88 binding inhibitor project, BLA reporter cells, FRET fluorescence (AID 588341); assay type: cell-based;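 note: cell based assay in CHO-K1 cells stably expressing beta-lactamase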
Bcl-2-like protein 10 = molecular target: T1, Bcl-2-like protein 10 (Homo sapiens, UniProt Q9HD36); experiment: displacers of TR3 peptide from Bcl-B, primary screen, selectivity assay for Bfl-1 inhibitor project, biochemical, fluorescence polarization, FITC-TR3 peptide (AID 748);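 note: fluorescence polarization from a fluorescein-labelled TR3 peptide binding purified Bcl-B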
T1 sequence (Q9HD36 whole entry): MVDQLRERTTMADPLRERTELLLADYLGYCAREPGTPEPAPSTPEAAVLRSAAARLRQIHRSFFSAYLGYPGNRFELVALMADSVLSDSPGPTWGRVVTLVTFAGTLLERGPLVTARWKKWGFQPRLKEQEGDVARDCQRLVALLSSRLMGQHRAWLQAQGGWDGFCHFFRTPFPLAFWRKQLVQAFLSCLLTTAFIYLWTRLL

Albumin = Albumin (Bos taurus, UniProt P02769); experiment: Counterscreen for inhibitors of T-cell receptor (TCR)-CD3 interaction: Fluorescence-based biochemical high throughput dose response assay to identify inhibitors of T-cell receptor (TCR)-CD3 interaction using a TAMRA-labeled BSA probe.; assay type: functional
Estrogen receptor beta = Estrogen receptor beta (Homo sapiens, UniProt Q92731); experiment: ERβ–SRC-3 coactivator interaction inhibitors, confirmation, orthogonal assay, biochemical, ELISA, streptavidin-HRP readout (AID 1060)
Sequence of Estrogen receptor beta (Q92731 whole entry): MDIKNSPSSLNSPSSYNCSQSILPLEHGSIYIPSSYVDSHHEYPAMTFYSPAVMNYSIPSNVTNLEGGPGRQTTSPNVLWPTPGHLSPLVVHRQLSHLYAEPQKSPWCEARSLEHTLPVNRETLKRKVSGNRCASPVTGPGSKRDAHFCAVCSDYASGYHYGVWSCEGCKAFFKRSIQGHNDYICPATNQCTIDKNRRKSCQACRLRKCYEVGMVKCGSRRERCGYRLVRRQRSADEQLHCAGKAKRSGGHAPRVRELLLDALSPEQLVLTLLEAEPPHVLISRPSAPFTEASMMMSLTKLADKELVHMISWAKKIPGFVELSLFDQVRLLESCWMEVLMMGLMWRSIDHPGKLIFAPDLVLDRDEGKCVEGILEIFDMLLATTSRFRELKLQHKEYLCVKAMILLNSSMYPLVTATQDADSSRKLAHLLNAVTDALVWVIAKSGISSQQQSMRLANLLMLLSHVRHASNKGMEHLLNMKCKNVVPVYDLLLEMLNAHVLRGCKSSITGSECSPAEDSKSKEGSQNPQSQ

[1] = molecular target: T2, Serine/threonine-protein kinase Chk1 (Homo sapiens, UniProt O14757); assay type: functional;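 note: measured as one member of a kinome-wide kinase profiling panel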
T2 sequence (O14757 whole entry): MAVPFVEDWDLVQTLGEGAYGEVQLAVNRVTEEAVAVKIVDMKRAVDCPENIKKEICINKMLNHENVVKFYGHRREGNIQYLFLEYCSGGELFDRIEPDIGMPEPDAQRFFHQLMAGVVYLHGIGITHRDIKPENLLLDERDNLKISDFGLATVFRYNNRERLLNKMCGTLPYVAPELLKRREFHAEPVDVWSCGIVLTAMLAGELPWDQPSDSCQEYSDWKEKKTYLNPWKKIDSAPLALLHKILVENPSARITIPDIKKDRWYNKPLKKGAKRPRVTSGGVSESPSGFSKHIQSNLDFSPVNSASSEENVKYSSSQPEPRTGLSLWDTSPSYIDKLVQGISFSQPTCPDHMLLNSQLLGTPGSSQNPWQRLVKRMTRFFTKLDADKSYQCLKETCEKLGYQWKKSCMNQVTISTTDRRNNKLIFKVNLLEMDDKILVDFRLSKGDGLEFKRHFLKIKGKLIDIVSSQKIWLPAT

[2] = molecular target: Tyrosine-protein kinase receptor UFO (Homo sapiens, UniProt P30530); assay type: functional
Ephrin type-A receptor 2 = Ephrin type-A receptor 2 (Homo sapiens, UniProt P29317); assay type: functional;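 note: EPHA2 tested as one member of a kinome-wide kinase panel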
Sequence of Ephrin type-A receptor 2 (P29317 whole entry): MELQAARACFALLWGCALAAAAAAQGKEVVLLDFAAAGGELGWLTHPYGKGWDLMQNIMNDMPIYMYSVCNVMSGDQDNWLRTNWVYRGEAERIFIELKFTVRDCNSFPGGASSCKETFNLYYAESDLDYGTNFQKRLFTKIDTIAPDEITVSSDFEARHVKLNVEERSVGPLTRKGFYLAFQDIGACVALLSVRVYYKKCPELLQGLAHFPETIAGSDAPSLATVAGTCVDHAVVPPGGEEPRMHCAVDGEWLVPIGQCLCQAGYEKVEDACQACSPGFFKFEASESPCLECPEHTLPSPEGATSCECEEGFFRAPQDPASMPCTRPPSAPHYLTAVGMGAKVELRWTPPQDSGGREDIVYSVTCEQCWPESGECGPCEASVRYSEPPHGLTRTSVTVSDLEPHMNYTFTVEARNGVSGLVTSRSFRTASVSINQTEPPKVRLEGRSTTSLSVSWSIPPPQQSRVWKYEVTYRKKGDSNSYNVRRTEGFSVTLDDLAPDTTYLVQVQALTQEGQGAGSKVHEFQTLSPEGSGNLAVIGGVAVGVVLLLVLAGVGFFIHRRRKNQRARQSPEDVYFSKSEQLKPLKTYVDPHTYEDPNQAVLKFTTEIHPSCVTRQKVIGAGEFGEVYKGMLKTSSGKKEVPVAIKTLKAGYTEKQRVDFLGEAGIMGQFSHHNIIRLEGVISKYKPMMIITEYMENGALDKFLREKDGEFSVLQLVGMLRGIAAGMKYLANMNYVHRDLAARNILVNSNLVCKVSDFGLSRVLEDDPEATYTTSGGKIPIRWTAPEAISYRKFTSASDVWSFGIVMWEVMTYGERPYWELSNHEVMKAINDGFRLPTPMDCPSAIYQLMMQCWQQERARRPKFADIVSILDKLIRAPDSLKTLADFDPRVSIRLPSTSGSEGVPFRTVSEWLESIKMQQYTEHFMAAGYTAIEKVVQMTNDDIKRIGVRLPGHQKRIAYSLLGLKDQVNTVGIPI

[3] = molecular target: Dual specificity tyrosine-phosphorylation-regulated kinase 4 (Homo sapiens, UniProt Q9NR20); assay type: functional
[4] = molecular target: Serine/threonine-protein kinase PLK4 (Homo sapiens, UniProt O00444); assay type: functional;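 note: PLK4 measured as one member of a kinome-wide kinase profiling panel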
[5] = molecular target: Protein kinase C zeta type (Homo sapiens, UniProt Q05513); assay type: functional;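 note: measured as one member of a broad kinase profiling panel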
[6] = molecular target: Vascular endothelial growth factor receptor 1 (Homo sapiens, UniProt P17948); assay type: functional;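 note: measured within a kinome-wide profiling panel, FLT1 as the panel member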
[7] = molecular target: Testis-specific serine/threonine-protein kinase 1 (Homo sapiens, UniProt Q9BXA7); assay type: functional
[8] = molecular target: Serine/threonine-protein kinase TAO1 (Homo sapiens, UniProt Q7L7X3); assay type: functional
Sequence of Serine/threonine-protein kinase TAO1 (Q7L7X3 whole entry): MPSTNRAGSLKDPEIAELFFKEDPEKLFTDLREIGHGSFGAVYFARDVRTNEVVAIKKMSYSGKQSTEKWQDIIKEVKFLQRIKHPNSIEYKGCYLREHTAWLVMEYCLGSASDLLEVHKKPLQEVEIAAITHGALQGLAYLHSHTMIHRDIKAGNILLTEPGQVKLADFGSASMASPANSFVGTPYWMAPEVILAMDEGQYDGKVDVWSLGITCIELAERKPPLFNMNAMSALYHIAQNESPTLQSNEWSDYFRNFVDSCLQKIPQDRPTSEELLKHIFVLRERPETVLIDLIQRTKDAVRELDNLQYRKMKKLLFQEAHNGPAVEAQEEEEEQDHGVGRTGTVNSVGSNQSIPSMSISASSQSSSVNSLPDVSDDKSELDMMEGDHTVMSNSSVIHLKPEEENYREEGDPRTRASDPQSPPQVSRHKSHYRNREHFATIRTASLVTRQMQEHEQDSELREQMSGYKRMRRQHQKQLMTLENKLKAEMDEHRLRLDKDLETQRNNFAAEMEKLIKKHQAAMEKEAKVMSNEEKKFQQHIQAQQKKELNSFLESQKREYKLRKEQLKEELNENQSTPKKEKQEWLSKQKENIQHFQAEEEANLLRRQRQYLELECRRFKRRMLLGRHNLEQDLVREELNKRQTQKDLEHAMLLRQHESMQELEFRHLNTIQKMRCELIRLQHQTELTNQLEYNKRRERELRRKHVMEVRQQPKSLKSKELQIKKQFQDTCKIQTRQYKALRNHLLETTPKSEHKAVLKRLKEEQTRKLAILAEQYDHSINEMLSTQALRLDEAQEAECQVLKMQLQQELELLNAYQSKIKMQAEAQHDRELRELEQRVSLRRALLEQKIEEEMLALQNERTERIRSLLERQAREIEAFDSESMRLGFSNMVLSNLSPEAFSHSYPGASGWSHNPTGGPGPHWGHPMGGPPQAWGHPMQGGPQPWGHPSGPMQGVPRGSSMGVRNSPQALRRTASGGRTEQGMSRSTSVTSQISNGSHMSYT

[9] = molecular target: Interleukin-1 receptor-associated kinase 4 (Homo sapiens, UniProt Q9NWZ3); assay type: functional
[10] = molecular target: Rho-associated protein kinase 1 (Homo sapiens, UniProt Q13464); assay type: functional;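 note: measured within a broad kinome-wide panel profiling many kinases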
Sequence of Rho-associated protein kinase 1 (Q13464 whole entry): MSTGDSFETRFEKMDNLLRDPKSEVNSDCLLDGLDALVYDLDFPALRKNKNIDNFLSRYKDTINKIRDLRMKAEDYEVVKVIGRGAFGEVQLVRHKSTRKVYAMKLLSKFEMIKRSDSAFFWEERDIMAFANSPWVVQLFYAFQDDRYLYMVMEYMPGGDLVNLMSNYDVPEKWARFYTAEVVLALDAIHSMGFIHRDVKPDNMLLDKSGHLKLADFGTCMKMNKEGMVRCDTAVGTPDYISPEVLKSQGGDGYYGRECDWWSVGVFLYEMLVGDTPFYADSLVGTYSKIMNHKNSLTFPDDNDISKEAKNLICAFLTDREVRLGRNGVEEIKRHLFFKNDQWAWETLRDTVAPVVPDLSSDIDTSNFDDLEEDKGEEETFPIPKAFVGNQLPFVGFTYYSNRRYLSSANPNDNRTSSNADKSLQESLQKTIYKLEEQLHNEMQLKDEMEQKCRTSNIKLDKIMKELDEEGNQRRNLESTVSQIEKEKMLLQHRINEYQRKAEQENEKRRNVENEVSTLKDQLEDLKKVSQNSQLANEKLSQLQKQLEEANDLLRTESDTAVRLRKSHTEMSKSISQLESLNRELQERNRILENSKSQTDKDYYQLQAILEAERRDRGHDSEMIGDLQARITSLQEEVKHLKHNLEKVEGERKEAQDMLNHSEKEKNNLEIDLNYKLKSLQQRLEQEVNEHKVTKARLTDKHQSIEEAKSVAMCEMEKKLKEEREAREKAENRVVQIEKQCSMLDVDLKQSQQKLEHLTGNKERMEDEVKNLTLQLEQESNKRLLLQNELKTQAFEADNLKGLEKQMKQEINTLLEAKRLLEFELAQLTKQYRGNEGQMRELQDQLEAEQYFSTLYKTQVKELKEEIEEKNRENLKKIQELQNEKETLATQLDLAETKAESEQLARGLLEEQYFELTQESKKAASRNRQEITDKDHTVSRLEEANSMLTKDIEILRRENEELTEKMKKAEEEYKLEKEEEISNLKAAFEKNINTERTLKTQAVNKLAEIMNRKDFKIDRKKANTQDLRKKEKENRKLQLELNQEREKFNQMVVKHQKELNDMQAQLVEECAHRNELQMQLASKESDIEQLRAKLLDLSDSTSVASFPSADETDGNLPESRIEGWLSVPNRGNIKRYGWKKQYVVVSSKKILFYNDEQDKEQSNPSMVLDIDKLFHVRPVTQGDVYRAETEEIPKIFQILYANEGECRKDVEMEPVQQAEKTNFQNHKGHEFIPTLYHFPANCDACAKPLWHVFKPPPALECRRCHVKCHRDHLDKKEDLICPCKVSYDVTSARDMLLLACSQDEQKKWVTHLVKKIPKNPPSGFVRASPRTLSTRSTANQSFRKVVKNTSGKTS

[11] = molecular target: Dual specificity protein kinase CLK2 (Homo sapiens, UniProt P49760); assay type: functional
[12] = molecular target: Homeodomain-interacting protein kinase 4 (Homo sapiens, UniProt Q8NE63); assay type: functional
[13] = molecular target: Cell division cycle 7-related protein kinase (Homo sapiens, UniProt O00311); assay type: functional;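 note: value obtained from a kinome-wide kinase panel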
[14] = molecular target: Serine/threonine-protein kinase pim-3 (Homo sapiens, UniProt Q86V86); assay type: functional;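 note: value obtained as one member of a broad kinase panel profiling effort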
[15] = molecular target: Ribosomal protein S6 kinase alpha-3 (Homo sapiens, UniProt P51812); assay type: functional;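 note: measured within a kinome-wide profiling panel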
[16] = molecular target: Tyrosine-protein kinase BTK (Homo sapiens, UniProt Q06187); assay type: functional
[17] = molecular target: MAP kinase-activated protein kinase 5 (Homo sapiens, UniProt Q8IW41); assay type: functional;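 note: measured as one member of a kinome panel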
[18] = molecular target: RAC-gamma serine/threonine-protein kinase (Homo sapiens, UniProt Q9Y243); assay type: functional
[19] = molecular target: Serine/threonine-protein kinase pim-1 (Homo sapiens, UniProt P11309); assay type: functional
[20] = molecular target: Serine/threonine-protein kinase Chk2 (Homo sapiens, UniProt O96017); assay type: functional;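 note: CHEK2 entry within a kinome-wide screening panel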
[21] = molecular target: Interleukin-1 receptor-associated kinase 1 (Homo sapiens, UniProt P51617); assay type: functional;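 note: IRAK1 tested as one member of a kinome panel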
[22] = molecular target: Insulin-like growth factor 1 receptor (Homo sapiens, UniProt P08069); experiment: Navigating the Kinome. Panel member name: IGF1R; assay type: functional
[23] = molecular target: Serine/threonine-protein kinase PAK 1 (Homo sapiens, UniProt Q13153); assay type: functional
Nonstructural protein 1 = Nonstructural protein 1 (Influenza A virus, UniProt Q194T2); assay type: functional, Influenza A virus (A/California/07/2009(H1N1))
Beta-galactosidase = Beta-galactosidase (Escherichia coli, UniProt Q8VNN2); experiment: beta-galactosidase enzyme inhibitors and activators, dose response, artefact control for CCR6 antagonist project, biochemical, E. coli enzyme, set 3 (AID 504712); assay type: functional
Sequence of Beta-galactosidase (Q8VNN2 whole entry): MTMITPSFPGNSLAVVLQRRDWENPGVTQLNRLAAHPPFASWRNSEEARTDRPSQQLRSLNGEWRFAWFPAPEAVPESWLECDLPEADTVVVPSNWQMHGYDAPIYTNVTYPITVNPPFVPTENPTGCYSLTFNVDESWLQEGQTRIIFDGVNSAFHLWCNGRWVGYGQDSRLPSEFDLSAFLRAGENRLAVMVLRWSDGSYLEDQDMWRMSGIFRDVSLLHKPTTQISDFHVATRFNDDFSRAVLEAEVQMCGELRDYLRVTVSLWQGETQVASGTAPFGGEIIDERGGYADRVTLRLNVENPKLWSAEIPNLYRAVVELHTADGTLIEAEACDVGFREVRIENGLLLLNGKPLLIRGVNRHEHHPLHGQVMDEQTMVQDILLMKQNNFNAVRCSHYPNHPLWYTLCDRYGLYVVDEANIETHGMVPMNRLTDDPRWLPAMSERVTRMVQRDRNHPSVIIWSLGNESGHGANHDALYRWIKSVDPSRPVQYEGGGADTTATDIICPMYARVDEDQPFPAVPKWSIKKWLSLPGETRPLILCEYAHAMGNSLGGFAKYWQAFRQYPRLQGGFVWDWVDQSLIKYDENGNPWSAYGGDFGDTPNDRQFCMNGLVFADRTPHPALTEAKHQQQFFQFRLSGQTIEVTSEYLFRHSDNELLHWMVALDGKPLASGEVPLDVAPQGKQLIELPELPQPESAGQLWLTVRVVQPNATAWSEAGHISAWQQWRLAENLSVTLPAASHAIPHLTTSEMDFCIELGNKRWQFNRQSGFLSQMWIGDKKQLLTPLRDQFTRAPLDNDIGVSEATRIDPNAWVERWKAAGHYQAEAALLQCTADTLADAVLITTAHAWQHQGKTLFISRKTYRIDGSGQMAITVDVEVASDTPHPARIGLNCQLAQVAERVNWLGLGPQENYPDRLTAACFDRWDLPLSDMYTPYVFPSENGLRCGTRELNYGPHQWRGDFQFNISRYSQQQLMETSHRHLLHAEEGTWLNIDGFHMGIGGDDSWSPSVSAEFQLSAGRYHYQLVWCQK

[24] = growth suppression of beta-catenin-knockout colon cells, dose response, cell-based, HCT116, human colon tumor (AID 1045); assay type: functional;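 note: HCT116 colon tumor cells with beta catenin knocked out; cells exposed to compound for 60 hours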

## CC(=O)N(C1=C(Cl)C(=O)c2ccccc2C1=O)C1CCCCC1
Beta Lactamase
  IC50: 5.3 µM (active)

## Oc1ccc(-c2cn3c(n2)SCC3)cc1O
Bcl-2-like protein 10
  IC50: 79.1 µM (inactive)
Albumin
  IC50: > 94.1 µM (inactive)
Estrogen receptor beta
  IC50: 10.7 µM (not active)

## O=C1Nc2ccc3ncsc3c2C1=CNc1ccc(S(=O)(=O)Nc2ccccn2)cc1
[1]
  Ki: 0.158 µM (active)
[2]
  Ki: 0.02 µM (active)
Ephrin type-A receptor 2
  Ki: 0.794 µM (active)
[3]
  Ki: 3.16 µM (active)
[4]
  Ki: 0.0126 µM (active)
[5]
  Ki: > 7.94 µM (inactive)
[6]
  Ki: 0.01 µM (active)
[7]
  Ki: 0.316 µM (active)
[8]
  Ki: 1.58 µM (active)
[9]
  Ki: 1.58 µM (active)
[10]
  Ki: 0.316 µM (active)
[11]
  Ki: 0.0501 µM (active)
[12]
  Ki: 2 µM (active)
[13]
  Ki: 0.126 µM (active)
[14]
  Ki: 1.26 µM (active)
[15]
  Ki: 0.0398 µM (active)
[16]
  Ki: 0.0794 µM (active)
[17]
  Ki: 0.398 µM (active)
[18]
  Ki: > 10 µM (inactive)
[19]
  Ki: 1.58 µM (active)
[20]
  Ki: 0.158 µM (active)
[21]
  Ki: 0.02 µM (active)
[22]
  Ki: > 2 µM (inactive)
[23]
  Ki: 2 µM (active)

## Cc1ccc(NC2=C/C(=N\S(=O)(=O)c3cccs3)c3ccccc3C2=O)c(C)c1
Nonstructural protein 1
  IC50: 6.48 µM (active)
Beta-galactosidase
  IC50: > 66.6 µM (inactive)
[24]
  EC50: 1.08 µM (active)
